“And” between values parts separate entries of the source, which are not always exact repeats. Equal values may be shown once. Read-outs that look alike come from different tables or passages of the source.
System: ATCC strain 43300 Staphylococcus aureus
[1] = 5% MSM, 12 μg/ml oxacillin, 24 hours
[2] = 5% MSM, 30 μg/ml oxacillin, 24 hours
[3] = 5% MSM, 60 μg/ml oxacillin, 24 hours
[4] = 6% MSM, 12 μg/ml oxacillin, 24 hours
[5] = 6% MSM, 30 μg/ml oxacillin, 24 hours
[6] = 6% MSM, 60 μg/ml oxacillin, 24 hours
[7] = 7% MSM, 12 μg/ml oxacillin, 24 hours
[8] = 7% MSM, 30 μg/ml oxacillin, 24 hours
[9] = 7% MSM, 60 μg/ml oxacillin, 24 hours
[10] = 8% MSM, 12 μg/ml oxacillin, 24 hours
[11] = 8% MSM, 30 μg/ml oxacillin, 24 hours
[12] = 8% MSM, 60 μg/ml oxacillin, 24 hours
[13] = 9% MSM, 12 μg/ml oxacillin, 24 hours
[14] = 9% MSM, 30 μg/ml oxacillin, 24 hours
[15] = 9% MSM, 60 μg/ml oxacillin, 24 hours
[16] = 10% MSM, 12 μg/ml oxacillin, 24 hours
[17] = 10% MSM, 12 μg/ml oxacillin, 48 hours
[18] = 10% MSM, 30 μg/ml oxacillin, 24 hours
[19] = 10% MSM, 60 μg/ml oxacillin, 24 hours
[20] = 11% MSM, 12 μg/ml oxacillin, 24 hours
[21] = 11% MSM, 12 μg/ml oxacillin, 48 hours
[22] = 11% MSM, 30 μg/ml oxacillin, 24 hours
[23] = 11% MSM, 60 μg/ml oxacillin, 24 hours

Description: Additional antibiotic was added every 24 hours.
USP<51> Antimicrobial Effectiveness protocol was used as the template experimental paradigm. […] All concentrations were plated out to the 10^−7 dilutionsto ascertain cfu/ml. […] Additional antibiotic was added at the initial concentration every 24 hours.
ATCC strain 43300 Staphylococcus aureus was streaked out for isolations. An isolated colony was chosen, streaked again and incubated. Isolate was chosen and then diluted to a McFarland standard of one. The estimated value was then taken to inoculate tubes containing growth media and 12, 30 or 60 μg/ml oxacillin with approximately 10^5 cfu/ml. These tubes were incubated and plated for counting cfu.
Material was calculated on a 10 ml volume. Sterile oxacillin was added to each experimental condition to a final concentration of 12, 30 or 60 μg/ml antibiotic.
All tubes were then inoculated with a dilution of the selected ATCC strain 43300 Staphylococcus aureus clone giving a final level of colony forming units of 3.3×10^5/ml (log=5.52). The tubes were incubated at 25° C. and mixed periodically. Antibiotic was re-inoculated every 24 hours at the initial concentration to maintain pressure on the organism. Plating was done at 24, 48, 72, and 120 hours. Each condition was plated by diluting 1 ml of growth material into 9 ml of MLB diluent broth. […] This mixture was serial diluted down to 10^−7 with 1 ml placed in triplicate in a sterile petri dish at each dilution point. 20 mls of TSA was added to each dilution, swirled and allowed to solidify. All dilutions were placed in a 35° C. incubator for 24 to 72 hours. Bacterial colonies on each plate were counted and the average taken then changed into log format. Any cfu/ml observed greater than 3.3×10^5 (log=5.5) were recorded as >3.3×10^5.

In the case of `CS(C)(=O)=O` [MSM, methylsulfonylmethane], the “Average Log” value [1] is reported as 3.91 Log, the survival [1] is reported as 8.4 × 10^3 cfu/ml and 8.0 × 10^3 cfu/ml and the “Average Log” value (5% MSM, 12 μg/ml oxacillin, 48 hours) is reported as 3.6 Log. For the same compound, the “Average Log” value (5% MSM, 12 μg/ml oxacillin, 72 hours) was 5.5 Log, the “Average Log” value [2] was 2.51 Log and the survival [2] was 3.1 × 10^2 cfu/ml and 3.3 × 10^2 cfu/ml. For the same compound, the “Average Log” value (5% MSM, 30 μg/ml oxacillin, 48 hours) was 3.8 Log, the “Average Log” value (5% MSM, 30 μg/ml oxacillin, 72 hours) was 5.5 Log and the “Average Log” value [3] was 2.54 Log. For the same compound, the survival [3] was 3.5 × 10^2 cfu/ml and 3.3 × 10^2 cfu/ml and 3.6 × 10^2 cfu/ml, the “Average Log” value (5% MSM, 60 μg/ml oxacillin, 48 hours) was 3.5 Log and the growth (5%, 10% and 16% MSM, no antibiotic, 24 hours) was “turbid growth”. For the same compound, the “Average Log” value [4] was 3.92 Log, the survival [4] was 8.6 × 10^3 cfu/ml and 8.5 × 10^3 cfu/ml and 8.0 × 10^3 cfu/ml and the “Average Log” value (6% MSM, 12 μg/ml oxacillin, 48 hours) was 3.2 Log. The “Average Log” value (6% MSM, 12 μg/ml oxacillin, 72 hours) was 5.5 Log, the “Average Log” value [5] was 2.46 Log and the survival [5] was 2.9 × 10^2 cfu/ml. The “Average Log” value (6% MSM, 30 μg/ml oxacillin, 48 hours) was 3.7 Log, the “Average Log” value (6% MSM, 30 μg/ml oxacillin, 72 hours) was 5.5 Log and the “Average Log” value [6] was 2.38 Log. The survival [6] was 2.4 × 10^2 cfu/ml, the “Average Log” value (6% MSM, 60 μg/ml oxacillin, 48 hours) was 1.8 Log and the “Average Log” value [7] was 3.91 Log. For the same compound, the survival [7] was 8.2 × 10^3 cfu/ml and 8.5 × 10^3 cfu/ml and 8.3 × 10^3 cfu/ml, the “Average Log” value (7% MSM, 12 μg/ml oxacillin, 48 hours) was 3.9 Log and the “Average Log” value (7% MSM, 12 μg/ml oxacillin, 72 hours) was 5.5 Log. The “Average Log” value [8] was 2.98 Log, the survival [8] was 9.7 × 10^2 cfu/ml and 9.6 × 10^2 cfu/ml and 9.2 × 10^2 cfu/ml and the “Average Log” value (7% MSM, 30 μg/ml oxacillin, 48 hours) was 2.3 Log. For the same compound, the “Average Log” value (7% MSM, 30 μg/ml oxacillin, 72 hours) was 4.5 Log, the “Average Log” value [9] was 2.34 Log and the survival [9] was 2.1 × 10^2 cfu/ml and 2.3 × 10^2 cfu/ml. The “Average Log” value (7% MSM, 60 μg/ml oxacillin, 48 hours) was 4.0 Log, the “Average Log” value [10] was 3.82 Log and the survival [10] was 6.6 × 10^3 cfu/ml and 6.9 × 10^3 cfu/ml. The “Average Log” value (8% MSM, 12 μg/ml oxacillin, 48 hours) was 3.7 Log, the “Average Log” value (8% MSM, 12 μg/ml oxacillin, 72 hours) was 5.5 Log and the “Average Log” value [11] was 3.07 Log. The survival [11] was 1.18 × 10^3 cfu/ml and 1.16 × 10^3 cfu/ml, the “Average Log” value (8% MSM, 30 μg/ml oxacillin, 48 hours) was 3.1 Log and the “Average Log” value (8% MSM, 30 μg/ml oxacillin, 72 hours) was 5.5 Log. The “Average Log” value [12] was 2.67 Log, the survival [12] was 4.6 × 10^2 cfu/ml and 5.0 × 10^2 cfu/ml and the “Average Log” value (8% MSM, 60 μg/ml oxacillin, 48 hours) was 2.8 Log. The “Average Log” value [13] was 3.72 Log, the survival [13] was 5.6 × 10^3 cfu/ml and 5.2 × 10^3 cfu/ml and 5.0 × 10^3 cfu/ml and the “Average Log” value (9% MSM, 12 μg/ml oxacillin, 48 hours) was 3.4 Log. The “Average Log” value (9% MSM, 12 μg/ml oxacillin, 72 hours) was 4.5 Log, the “Average Log” value [14] was 3.01 Log and the survival [14] was 1.06 × 10^3 cfu/ml and 1.05 × 10^3 cfu/ml and 1.02 × 10^3 cfu/ml. For the same compound, the “Average Log” value (9% MSM, 30 μg/ml oxacillin, 48 hours) was 2.4 Log, the “Average Log” value (9% MSM, 30 μg/ml oxacillin, 72 hours) was 2.9 Log and the “Average Log” value [15] was 2.50 Log. The survival [15] was 3.2 × 10^2 cfu/ml, the “Average Log” value (9% MSM, 60 μg/ml oxacillin, 48 hours) was 2.2 Log and the “Average Log” value [16] was 3.76 Log. The survival [16] was 5.8 × 10^3 cfu/ml and 5.6 × 10^3 cfu/ml and 6.0 × 10^3 cfu/ml, the “Average Log” value [17] was 2.7 Log and the survival [17] was 5.6 × 10^2 cfu/ml. For the same compound, the “Average Log” value (10% MSM, 12 μg/ml oxacillin, 72 hours) was 4.0 Log, the “Average Log” value [18] was 3.32 Log and the survival [18] was 2.2 × 10^3 cfu/ml and 2.0 × 10^3 cfu/ml. The “Average Log” value (10% MSM, 30 μg/ml oxacillin, 48 hours) was 2.6 Log, the “Average Log” value (10% MSM, 30 μg/ml oxacillin, 72 hours) was 3.9 Log and the “Average Log” value [19] was 2.63 Log. The survival [19] was 4.2 × 10^2 cfu/ml and 4.4 × 10^2 cfu/ml, the “Average Log” value (10% MSM, 60 μg/ml oxacillin, 48 hours) was 2.2 Log and the “Average Log” value [20] was 3.91 Log. The survival [20] was 8.2 × 10^3 cfu/ml and 8.5 × 10^3 cfu/ml and 8.0 × 10^3 cfu/ml, the “Average Log” value [21] was 2.8 Log and the survival [21] was 6.4 × 10^2 cfu/ml and 5.8 × 10^2 cfu/ml and 6.5 × 10^2 cfu/ml. The “Average Log” value (11% MSM, 12 μg/ml oxacillin, 72 hours) was 3.6 Log, the “Average Log” value [22] was 3.57 Log and the survival [22] was 3.9 × 10^3 cfu/ml and 3.7 × 10^3 cfu/ml. The “Average Log” value (11% MSM, 30 μg/ml oxacillin, 48 hours) was 2.4 Log, the “Average Log” value (11% MSM, 30 μg/ml oxacillin, 72 hours) was 3.2 Log and the “Average Log” value [23] was 2.83 Log. The survival [23] was 6.7 × 10^2 cfu/ml and 6.9 × 10^2 cfu/ml, the “Average Log” value (11% MSM, 60 μg/ml oxacillin, 48 hours) was 2.1 Log and the “Average Log” value (12% MSM, 12 μg/ml oxacillin, 24 hours) was 3.85 Log.
